The term melting point denotes the temperature of the solid-liquid transition.

`CC(N)(CO)COC(C)(C)C` (stereo not shown) [Compound 301, 2-amino-3-tert-butoxy-2-methyl-propan-1-ol] returned a melting point of 30 to 35 °C.

Source of the values: patent publication US7002010B2, “Process for the preparation of morpholinones as light stabilizers” (Ciba Specialty Chemicals Corporation, priority 2000, dated 2006).
